On the set-up of series [1]: method as in earlier work. The conditions noted are these: IUPAC Digitized pKa Dataset ref 30; cited from earlier work.
The test system of series [2] is ERα LBD or full-length ERα. Put plainly: Nuclear receptor activity profiling (NAPing), E2-induced ERα-coregulator interaction. Type of series: biochemical. The settings on record: E2 −8.5 logM, compound −5.5 logM, LBD or full-length ER. How it is done:
Preparation of assay mixes with ERα recombinant ligand binding domain (LBD) and full-length ERα in MCF-7 extracts and measurement of coregulator recruitment on the NAPing platform (PML, Oss, The Netherlands) was performed as described previously.[68]^,[69] […] Unbound ERα and antibodies were removed by washing. Residual ERα binding to each coregulator motifs was recorded on tiff images and quantified using an R-based analysis software package (PML, Oss, The Netherlands).

The target in another series is T1, ERα full-length (Homo sapiens, UniProt P03372).
T1 construct: 34 nM ERα full-length and 1.4 nM Fluormone EL Red were incubated; purchased ThermoFisher A15884
T1 sequence (P03372 1-595): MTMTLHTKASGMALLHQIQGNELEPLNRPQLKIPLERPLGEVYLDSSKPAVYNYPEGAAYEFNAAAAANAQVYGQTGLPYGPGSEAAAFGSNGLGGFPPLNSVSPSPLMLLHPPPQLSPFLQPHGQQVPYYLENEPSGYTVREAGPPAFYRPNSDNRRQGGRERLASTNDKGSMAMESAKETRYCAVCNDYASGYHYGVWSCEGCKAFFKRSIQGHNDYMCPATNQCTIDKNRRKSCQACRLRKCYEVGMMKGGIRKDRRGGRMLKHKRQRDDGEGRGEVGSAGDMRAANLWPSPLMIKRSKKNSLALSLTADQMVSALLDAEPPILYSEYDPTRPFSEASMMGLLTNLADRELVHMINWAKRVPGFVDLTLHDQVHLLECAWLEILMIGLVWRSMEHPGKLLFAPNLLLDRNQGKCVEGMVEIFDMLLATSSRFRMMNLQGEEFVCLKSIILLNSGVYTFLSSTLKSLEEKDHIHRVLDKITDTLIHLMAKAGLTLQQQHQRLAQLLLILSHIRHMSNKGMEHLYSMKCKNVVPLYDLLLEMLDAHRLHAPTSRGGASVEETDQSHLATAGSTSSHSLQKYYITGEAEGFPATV
Put plainly: PolarScreen ERα Competitor Assay (fluorescence polarization). Type of series: binding. How it is done: The PolarScreen Estrogen Receptor-Alpha Competitor Assay, Red (ThermoFisher, A15884) was used to determine if the X compounds bind to ERα. The assay was performed according to the manufacturer’s protocol.
Background: Polarisation of emitted light reports the rotation of a fluorescent probe.

The test system of another series is PDxO#28. Put plainly: Organoid viability, CellTiter-Glo 3D. The conditions noted are these: PDxO#28 in 3D Matrigel, 7 days, increasing doses; same results in PDO#268 and PDO#480. Type of series: cell-based, human. The text has this: Organoids were generated from patients’ samples and from patient-derived xenograft (PDX) tumors, as previously described.[25] PDX were derived from BCRO#28, an ER^+ breast cancer sample collected from a treatment naive patient. PDO#268 was derived from BCRO#268, an ER^+ breast cancer sample collected from treatment naive patient. PDO#480 was derived from BCRO#480, an ER^+ breast cancer sample collected from a patient subjected to chemotherapy in neo-adjuvant setting. Briefly, tumors freshly explanted from mice were mechanically shredded, digested with collagenase (Merck) and filtered through a 100 μm strainer. Digested material (isolated cells and small cell clusters) was centrifuged and embedded in 3D-matrix drops (reduced growth factor Basement Membrane Extract, BME, R&D systems), then overlaid with breast cancer organoid medium.[25] For 3D survival curves under treatment, organoids were embedded in BME drops and, after 24 - 48 h, drugs were added. Fresh drug-containing medium was replaced on day 4. On day 7 of treatment, CellTiter-Glo 3D Cell Viability Assay (Promega) was added and luminescent signal from viable organoids was recorded on Infinite M1000 Pro instrument (Tecan).

A further series has as its system MCF-7 luc D538G. Put plainly: Clonogenic assay (clonal expansion), MCF-7 cells with D538G ER mutation. Type of series: cell-based. The conditions noted are these: Homo sapiens, MCF7, 336 h. How it is done: (§1) Cells were seeded at a density of 1–2×10^3 cells/well in a 6-well plate and treated with increasing concentrations of the X compounds for 14–21 days. Medium and compounds were renewed every 7 days. The experiments were terminated by fixing the cells with methanol and the colonies formed were visualized after staining with 0.5% crystal violet (w/v) in 20% methanol (v/v). Plates were photographed and the area covered by the colonies was calculated using the ColonyArea Plugin for Fiji (RRID:SCR_003070).[20]

Series [3] relates to MCF-7 luc D538G and MCF-7 luc Y537S. Put plainly: Clonogenic assay, cells expressing the two mutant ERs (range over both). Format: cell-based. The conditions noted are these: Homo sapiens, MCF7, read-out: IC50 clonal expansion in cells expressing the two mutant ERs. How it is done:
as §1

For another series, the system named is MCF-7 luc. Description: Clonogenic assay (clonal expansion), MCF-7 cells expressing wild-type ER. The conditions noted are these: Homo sapiens, MCF7, 336 h. Type of series: cell-based. How it is done: as §1
For another series, the system named is MCF-7 cells. Description: Clonogenic assay in MCF-7 cells with AHR antagonist CH223191. Type of series: cell-based, human. The settings on record: MCF-7, 10 nM compound, 1 μM CH223191, 14 days. How it is done:
as §1

Another series relates to CTC-ITB-01 cells. Put plainly: cells. The settings on record: Homo sapiens, read-out: LC50. Type of series: cell-based. How it is done: LC50 values were measured using the CyQUANT NF Cell Proliferation Assay Kit (Thermo Fisher). CTC-ITB-01 cells were plated at a density of 2x10^3 cells/well in 96-well plates and treated the following day with serial dilutions of the test compounds. After incubation for the indicated time, cells were stained with CyQUANT dye according to the manufacturer’s protocol and incubated at 37°C for 30 min. Fluorescence was measured using a Tecan Infinite M Nano+ (excitation: 485 nm; emission: 530 nm). For the calculation of the LC50 the fluorescence was plotted against the Log10 of the inhibitor concentration in nM as x values and the LC50 values were calculated with 95% confidence intervals (n = 4).

The test system of another series is MCF-7 luc Y537S. Put plainly: Clonogenic assay (clonal expansion), MCF-7 cells with Y537S ER mutation. The settings on record: Homo sapiens, MCF7, 336 h. Format: cell-based. How it is done:
as §1

A further series relates to ERα in MCF-7 cells. Put plainly: Immunoblot of ERα in MCF-7 cells. Type of series: cell-based, human. The conditions noted are these: MCF-7, 48 h, increasing concentrations up to 1 μM. How it is done: To determine the relative expression of proteins by Western blotting, cells were first washed with ice-cold phosphate buffered saline (PBS). Subsequently, they were lysed in ice-cold NP40 lysis buffer (1%NP-40, 50 mM Tris-HCl, pH 8.0, 150 mM NaCl, 5 mM Ethylenediaminetetraacetic acid [EDTA], 1 mM PMSF) on ice. DNA was degraded by sonification (five pulses at 50 amplitudes). Protein concentration was determined, and equal amounts of protein were separated on a 9% SDS-PAGE gel. The proteins were transferred onto nitrocellulose membrane by a standard Western blotting protocol and the membranes were incubated with the following antibodies: ERα (Santa Cruz Biotechnology, sc-8002, RRID: AB_627558) and PCNA (Santa Cruz Biotechnology, sc-56, RRID: AB_628110), followed by incubation with HRP labeled Goat anti-mouse Immunoglobulins (DAKO, P0447, RRID: AB_2617137).
A general note: Immunoblotting shows a protein as a band on a membrane.

In series [4] the test system is AHR target genes CYP1A1, CYP1B1, ALDH3A1. The settings on record: human, 16 h, 1 µM.
The nature of series [5]: Compound stability in aqueous environment. Format: physicochemical. The settings on record: 12.5 μM, HEPES pH 7.4/acetonitrile 3:2, 1% DMSO, 21 °C, 5 days. How it is done: The stability of the compounds was evaluated at a concentration of 12.5 μM in a 3:2 mixture of buffer (HEPES, 0.1 M, pH 7.4) and acetonitrile, with 1% DMSO. Acetonitrile was added because the concentration of 12.5 μM exceeded the thermodynamic solubility of the compounds in the buffer. This addition thereby prevented the formation of precipitates and a gradual decrease in compound concentration during the measurement. The resulting solution was stirred at 21 °C in a sealed vial (crimp neck vials, 5 mL, clear (Cat. No. 548-0611A) in combination with natural rubber septa (548-0565A) and aluminum crimp caps (548-3278A), VWR International) for 5 days. […] The AUC measured was subsequently plotted as a function of the incubation time (Figure S3). No signs of decomposition could be observed over the given time.

Series [6] is described as follows: Thermodynamic solubility, shake-flask method. Type of series: physicochemical. The settings on record: HEPES buffer 0.1 M pH 7.4, 21 °C. How it is done:
Thermodynamic solubility was determined using the classical shake-flask method. The solid compound (4 mg) was suspended in 1 mL HEPES buffer (0.1 M, pH 7.4) and constantly stirred at 21 °C for 24 h. […] The injection volume for all analyses was 50 μL and the flow rate was kept at 1 mL/min during the analysis. A mobile phase gradient method was applied as a method with 5% solvent B to 99% solvent B in 5 min, followed by 3 min of elution at 99% solvent B.
Calibration curve was generated from a serial dilution of the respective analyte in DMSO at 2.5, 1.25, 0.625, 0.313, 0.156, 0.078, 0.039 mM starting from a 10 mM DMSO stock solution. Subsequently, 2 μL of each dilution was added to 198 μL of a buffer (HEPES, 0.1 M, pH 7.4)/acetonitrile mixture in a 3:2 ratio yielding final dilutions of 25, 12.5, 6.25, 3.125, 1.562, 0.781, 0.391 μM. These were then subjected to HPLC analysis as described above.
Using the results from the linear regression of the internal calibration measurement points (Figure S5) and the mean AUC values from the saturated aqueous solutions, the concentration C of the analytes in the saturated aqueous solution, expressed in μM, were calculated using Equation 2:(Equation 1) AUC=Slope·C+YIntercept (Equation 2) C=AUC−YIntercept/Slope

Converted amounts (≈) assume the structure as drawn. Like-named read-outs stand apart in the source and are kept apart here.

As for `c1ccn2ccnc2c1` [Imidazo(1,2-a)pyridine], the “experimental pKa” value in [1] was 6.79.
Take `C[C@]12CC[C@@H]3c4ccc(O)cc4C[C@@H](CCCCCCCCC[S+]([O-])CCCC(F)(F)C(F)(F)F)[C@H]3[C@@H]1CC[C@@H]2O` (some centres unmarked) [Fulvestrant, reference compound]: in [2], the “disruption of coactivator peptide binding to E2-liganded ERα” value is “clearly disrupted binding of the coactivator peptides”. Further, at ERα full-length, the “displacement of the Fluormone tracer from ERα” value was “efficiently displaced the Fluormone tracer”. In addition, in the series with PDxO#28, the “organoid viability (survival)” value is on record as “modest”. The IC50 in the series with MCF-7 luc D538G (read-out: IC50 clonal expansion, Figure 1B, MCF-7 luc D538G, absence of E2, 14 days) was 0.00957 µM; in the series with MCF-7 luc D538G (read-out: IC50 clonal expansion, Figure 1C, MCF-7 luc D538G + 10 nM E2, 14 days), 1.91 µM; with MCF-7 luc D538G (read-out: IC50 clonal expansion, Figure 1D, MCF-7 luc D538G, absence of E2, 14 days), 0.0122 µM; in the series on MCF-7 luc D538G (read-out: IC50 clonal expansion, Figure 1E, MCF-7 luc D538G + 10 nM E2, 14 days) it was 1.91 µM; in series [3], 0.0066 to 0.00957 µM; in the series on MCF-7 luc (Figure 1B, MCF-7 luc, absence of E2, 14 days) it was 0.00014 µM. Besides, the IC50 with MCF-7 luc (Figure 1C, MCF-7 luc + 10 nM E2, 14 days) turned out to be 0.0692 µM; in the series on MCF-7 luc (Figure 1D, MCF-7 luc, absence of E2, 14 days), 0.00012 µM; in the series on MCF-7 luc (Figure 1E, MCF-7 luc + 10 nM E2, 14 days), 0.0781 µM; in the series on MCF-7 luc Y537S (read-out: IC50 clonal expansion, Figure 1B, MCF-7 luc Y537S, absence of E2, 14 days) it was 0.0066 µM; in the series on MCF-7 luc Y537S (read-out: IC50 clonal expansion, Figure 1C, MCF-7 luc Y537S + 10 nM E2, 14 days), 0.149 µM; in the series on MCF-7 luc Y537S (read-out: IC50 clonal expansion, Figure 1D, MCF-7 luc Y537S, absence of E2, 14 days) it was 0.00747 µM. Also, in the series on MCF-7 luc Y537S (read-out: IC50 clonal expansion, Figure 1E, MCF-7 luc Y537S + 10 nM E2, 14 days), the IC50 is 0.147 µM. The “inhibition of colony expansion in the presence of AHR antagonist CH223191” value in the series on MCF-7 cells is “inhibited colony growth in the presence of CH223191”. Besides, the CC50 with CTC-ITB-01 cells (48 h) was 8.8 µM; with CTC-ITB-01 cells (120 h), 6.3 µM.
`FC(F)(F)c1cc(Cl)c2nc(-c3ccccc3)cn2c1` [X15696]: the “ERα destabilization (immunoblot)” value with ERα in MCF-7 cells is reported as “most proficient in destabilizing ERα”. In addition, the “expression of AHR target genes (RT-PCR)” value in series [4] was “enhanced the transcriptional activity of the AHR target genes in both MCF-7 and T47D cells”. Further, the “stability in aqueous environment” value in [5] is recorded as “no obvious decomposition detected”. For the same compound, the “inhibition of colony expansion in the presence of AHR antagonist CH223191” value with MCF-7 cells is “clearly abrogated by the AHR antagonist CH223191”. The thermodynamic solubility at 24 h in series [6] worked out at 5 µM (≈ 1.48 µg/mL); in series [6] (HEPES buffer, 21 °C, pH 7.4, aqueous buffer, thermodynamic from solid), 5.11 µM (≈ 1.52 µg/mL).

The IC50 is the concentration that inhibits the measured activity by half. As a reminder, the thermodynamic solubility is the concentration in solution at equilibrium with solid.

These data come from paper PMC13197777, “Distinct 2-phenylimidazo[1,2-a]pyridine derivatives that inhibit breast cancer cell proliferation identified as AHR ligands” (iScience, 2026).
